Data on one compound can be found in patent US6051582A, “Compounds useful for inhibition of farnesyl protein transferase” (Schering Corporation, priority 1998, dated 2000).

The target of assay [1] is farnesyl protein transferase (Homo sapiens, UniProt P49354+P49356). Kind of assay: FPT inhibition, in vitro enzyme assay. The class given is biochemical. As for the experimental part: (§1) FPT IC50 (inhibition of farnesyl protein transferase, in vitro enzyme assay) and COS Cell IC50 (Cell-Based Assay) were determined following the assay procedures described in WO 95/10516, published Apr. 20, 1995. GGPT IC50 (inhibition of geranylgeranyl protein transferase, in vitro enzyme assay), Cell Mat Assay, and anti-tumor activity (in vivo anti-tumor studies) could be determined by the assay procedures described in WO 95/10516. The disclosure of WO 95/10516 is incorporated herein by reference thereto.

The subject of another assay is COS Cell. Briefly: COS Cell-Based Assay. The protocol: as §1

Chain of farnesyl protein transferase (P49356 whole entry, one chain of several): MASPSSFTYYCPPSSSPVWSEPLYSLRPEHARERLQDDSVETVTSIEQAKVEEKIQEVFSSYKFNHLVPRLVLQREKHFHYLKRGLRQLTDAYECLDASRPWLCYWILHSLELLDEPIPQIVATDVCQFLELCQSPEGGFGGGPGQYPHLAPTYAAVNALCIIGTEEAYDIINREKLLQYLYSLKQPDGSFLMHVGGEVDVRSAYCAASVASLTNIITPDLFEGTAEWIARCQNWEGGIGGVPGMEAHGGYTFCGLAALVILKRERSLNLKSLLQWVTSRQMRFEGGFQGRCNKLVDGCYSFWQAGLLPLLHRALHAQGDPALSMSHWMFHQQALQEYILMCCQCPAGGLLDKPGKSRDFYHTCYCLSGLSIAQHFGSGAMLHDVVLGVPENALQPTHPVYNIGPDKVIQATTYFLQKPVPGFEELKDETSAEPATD

A word on the IC50: it is the concentration at which inhibition is half-maximal. Regarding `CC1(CC(=O)N2CCC([C@H]3c4ncc(Br)cc4CCc4cc(Cl)cc(Br)c43)CC2)CCN(S(C)(=O)=O)CC1` [Example 1], the IC50 was 19 nM in assay [1] and 22 nM in the assay with COS Cell.
